In patent publication US5643877A, “Compounds comprising gonadotropin releasing hormone (GnRH) and methods for controlling reproduction in fish” (University of Maryland Biotechnology Institute, priority 1994, dated 1997):
“Also recorded” adds a separate entry of the source. Square brackets hold non-standard residues; d marks the D form. Peptide text beside a SMILES is read from it. pGlu = O=C1CC[C@@H](C(=O)O)N1

System: GtH-II secretion in female gilthead seabream
Assay: In vivo gonadotropin-releasing potency: plasma GtH-II by homologous radioimmunoassay after intramuscular injection of GnRH peptides
Set-up: species or system Sparus aurata
Details: for gonadotropin (GtH-II) secretion of sbGnRH, its analogs and the mGnRH analog compared (in words) / blood GtH-II levels, times higher than in sbGnRH-injected females: third experiment; for gonadotropin (GtH-II) secretion of sbGnRH, its analogs and the mGnRH analog compared (in words): 5 μg/kg body weight, 1.5, 4 and 8 hours post-injection; for GtH-II levels, times higher than in saline-injected fish: 25 μg/kg body weight; for stimulation of GtH-II secretion (in words): reproductively mature seabream females, native peptides injected at 5 and 25 μg/kg body weight
Description: During the spawning season, 104 female seabream at 2 years of age, weighing 458±104 g, with preovulatory oocytes of 500-600 μm in diameter were selected for experimentation. Oocyte developmental stage was determined by microscopic examination of a freshly removed ovarian biopsy, as previously described (Zohar et al., 1979, J. Fish Biol. 15:665-670). The bioactivity of the native forms of GnRH and of the GnRH analogs was studied in three consecutive experiments, carried out on day 1, day 3, and day 8. The first experiment included four groups of eight females. Three groups were injected with 5 μg/kg body weight of either sbGnRH, sGnRH or cGnRH-II. The fourth group was injected with saline. The second experiment included four similar groups, except that the peptides were injected at a dose of 25 μg/kg body weight. The third experiment included five groups, each with eight females. One group was injected with native sbGnRH; two other groups were each injected with an analog of sbGnRH, the [D-Ala^6,Pro^9 -NEt]-sbGnRH and [D-Arg^6,Pro^9 -NEt]-sbGnRH; another group was injected with the analog of the mammalian GnRH, [D-Ala^6,Pro^9 -NEt]-mGnRH; and the last group was injected with saline. All peptides in the third experiment were injected at a dose of 5 μg/kg body weight.
In all experiments, the tested peptides were injected into the dorsal musculature, in a volume of 0.5 ml/kg body weight. Each group of fish was held in a separate 600 liter tank exposed to natural photoperiod conditions and supplied with sea water at 20° C. Fish were bled before the injection of the peptides and at 1.5, 4 and 8 hours post-injection. At each bleeding time, 1 ml of blood was removed from the caudal vessels, using a 1 ml syringe fit with a 21G needle. Prior to injection and bleeding, fish were anesthetized in 0.2 ppt of 2-phenoxy-ethanol. Blood was immediately centrifuged and plasma removed and frozen. Levels of seabream GtH-II in the plasma samples were measured using a homologous and specific radioimmunoassay, as previously described (Zohar et al., 1990, Aquaculture 88:189-204). Blood GtH-II levels in the various groups were statistically compared using ANOVA followed by Duncan new multiple range comparison test.

[1] = 5 μg/kg body weight, 1.5 hours post-injection
[2] = 5 μg/kg body weight, 4 hours after injection
[3] = 5 μg/kg dose, 1.5 hr after injection
[4] = 25 μg/kg body weight, 1.5, 4 and 8 hours post-injection
[5] = 25 μg/kg dose, 1.5 hr after injection
[6] = native GnRH forms, 5 and 25 μg/kg body weight

For `CCNC(=O)[C@@H]1CCCN1C(=O)[C@H](CO)NC(=O)[C@H](CC(C)C)NC(=O)[C@@H](C)NC(=O)[C@H](Cc1ccc(O)cc1)NC(=O)[C@H](CO)NC(=O)[C@H](Cc1c[nH]c2ccccc12)NC(=O)[C@H](Cc1c[nH]cn1)NC(=O)[C@@H]1CCC(=O)N1` [[D-Ala^6,Pro^9-.NEt]-sbGnRH, [D-Ala^6,Pro^9 -NEt]-sbGnRH] ([pGlu]HWSY[dA]LSP-NHEt), the “gonadotropin (GtH-II) secretion of sbGnRH, its analogs and the mGnRH analog compared (in words)” value was “significantly stronger gonadotropin secretion than did the native sbGnRH; also recorded: equipotent; also recorded: much less potent; also recorded: in the same range as those induced by the native sGnRH and cGnRH-II”, the “blood GtH-II levels, times higher than in sbGnRH-injected females” value (5 μg/kg body weight, 1.5 hr) was 5 times and the “blood GtH-II levels, times higher than in sbGnRH-injected females” value (5 μg/kg body weight, 8 hr) was 2.5 times.

In the case of `NC(=O)CNC(=O)[C@@H]1CCCN1C(=O)[C@H](Cc1ccc(O)cc1)NC(=O)[C@H](Cc1c[nH]c2ccccc12)NC(=O)CNC(=O)[C@H](Cc1c[nH]cn1)NC(=O)[C@H](CO)NC(=O)[C@H](Cc1c[nH]c2ccccc12)NC(=O)[C@H](Cc1c[nH]cn1)NC(=O)[C@@H]1CCC(=O)N1` [cGnRH-II, pGlu-His-Trp-Ser -His-Gly-Trp-Tyr-Pro-Gly-NH2, reference compound] ([pGlu]HWSHGWYPG-NH2), the “blood GtH-II levels, times higher than in control females” value [1] was 14.50 times, the “blood GtH-II levels, times higher than in control females” value [2] was 6.2 times and the “blood GtH-II levels versus control females” value (5 μg/kg body weight, 8 hours post-injection) was “higher GtH-II levels”. The “potency in inducing GtH-II secretion, times more potent than sGnRH” value [3] was 1.75 times, the “potency in inducing GtH-II secretion, times more potent than sbGnRH” value [3] was 8 times and the “GtH-II-releasing potency of the native peptides compared (in words)” value (“GtH-II-releasing potency … compared (in words)” below) [4] was “cGnRH-II>sGnRH>sbGnRH; also recorded: induced higher GtH-II secretion than did sGnRH or sbGnRH”. For the same compound, the “GtH-II levels, times higher than in saline-injected fish” value (from here on “GtH-II levels … in saline-injected fish”) (1.5 hr after injection) was 31.0 times, the “GtH-II levels … in saline-injected fish” value (4 hr after injection) was 10.9 times and the “GtH-II levels … in saline-injected fish” value (8 hr after injection) was 5.5 times. The “potency in inducing GtH-II secretion, times more potent than sGnRH” value [5] was 2 times, the “potency in inducing GtH-II secretion, times more potent than sbGnRH” value [5] was 7 times and the “GtH-II-releasing potency … compared (in words)” value [6] was “significantly more potent than the novel sbGnRH”. The “stimulation of GtH-II secretion (in words)” value was “significantly stimulate GtH-II secretion”.

With `CCNC(=O)[C@@H]1CCCN1C(=O)[C@H](CO)NC(=O)[C@H](CC(C)C)NC(=O)[C@@H](CCCNC(=N)N)NC(=O)[C@H](Cc1ccc(O)cc1)NC(=O)[C@H](CO)NC(=O)[C@H](Cc1c[nH]c2ccccc12)NC(=O)[C@H](Cc1c[nH]cn1)NC(=O)[C@@H]1CCC(=O)N1` [[D-Arg^6, Pro^9 -NEt]-sbGnRH] ([pGlu]HWSY[dR]LSP-NHEt) the “blood GtH-II levels, times higher than in sbGnRH-injected females” value (5 μg/kg body weight, 1.5 hr) was 5 times and the “blood GtH-II levels, times higher than in sbGnRH-injected females” value (5 μg/kg body weight, 8 hr) was 2.5 times.

`CC(C)C[C@H](NC(=O)CNC(=O)[C@H](Cc1ccc(O)cc1)NC(=O)[C@H](CO)NC(=O)[C@H](Cc1c[nH]c2ccccc12)NC(=O)[C@H](Cc1c[nH]cn1)NC(=O)[C@@H]1CCC(=O)N1)C(=O)N[C@@H](CO)C(=O)N1CCC[C@H]1C(=O)NCC(N)=O` [sbGnRH, pGlu-His-Trp-Ser-Tyr-Gly-Leu-Ser-Pro-Gly-NH 2] was tested, and the “blood GtH-II levels, times higher than in control females” value [1] was “tended to be higher than in the control females”, the “blood GtH-II levels, times higher than in control females” value [2] was “not different from control levels” and the “GtH-II-releasing potency … compared (in words)” value [4] was “cGnRH-II>sGnRH>sbGnRH”. For the same compound, the “GtH-II levels … in saline-injected fish” value (1.5 hr after injection) was 4.4 times, the “GtH-II-releasing potency … compared (in words)” value [6] was “less active than cGnRH-II and sGnRH” and the “stimulation of GtH-II secretion (in words)” value was “significantly stimulate GtH-II secretion”. For the same compound, the “gonadotropin (GtH-II) secretion of sbGnRH, its analogs and the mGnRH analog compared (in words)” value was “did not induce significant release of GtH-II”.
